Experimental data published in patent publication US7892789B2, “Method of increasing cell permeability to trehalose by recombinantly producing a trehalose transporter” (priority 2007, dated 2011).
Read-outs that look alike come from different tables or passages of the source.

Legend:
TRET1 = molecular target: T1, TRET1 (Polypedilum vanderplanki, UniProt A5LGM7); type: cell-based; conditions: for effect on the transport activity of TRET1: 105 mM trehalose, various concentrations of ionophore/uncoupler
T1 construct: ORF of either Tret1, DmTret1, AmTret1, AgTret1 or BmTret1 cDNA was amplified with PCR; expressed in transfected cells; host or cells: Xenopus laevis oocytes injected with cRNA
T1 sequence (A5LGM7 1-504): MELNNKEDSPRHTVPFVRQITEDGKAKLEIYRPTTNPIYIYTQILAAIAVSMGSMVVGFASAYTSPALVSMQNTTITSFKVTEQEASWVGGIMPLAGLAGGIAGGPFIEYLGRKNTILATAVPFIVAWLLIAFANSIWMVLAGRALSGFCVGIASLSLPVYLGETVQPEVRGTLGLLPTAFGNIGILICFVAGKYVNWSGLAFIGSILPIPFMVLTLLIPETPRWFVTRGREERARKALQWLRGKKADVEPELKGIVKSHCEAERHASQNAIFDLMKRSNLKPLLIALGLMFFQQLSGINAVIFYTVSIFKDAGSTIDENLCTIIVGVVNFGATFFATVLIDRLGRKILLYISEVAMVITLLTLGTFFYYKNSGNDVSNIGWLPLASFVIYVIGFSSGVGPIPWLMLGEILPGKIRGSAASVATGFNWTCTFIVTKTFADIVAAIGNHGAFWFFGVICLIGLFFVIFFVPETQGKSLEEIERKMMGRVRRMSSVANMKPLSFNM
Description: (§1) The capped RNA (cRNA) expression vector pTRET1-XbG-ev1 series was constructed as follows: ORF of either Tret1, DmTret1, AmTret1, AgTret1 or BmTret1 cDNA was amplified with PCR using specific primers containing Bgl II site at the 5′-end on each primer, respectively. The PCR products were digested with the restriction enzymes, and cloned into the site of Bgl II in pXbG-ev1 (Preston, G. M., et al. (1992) Science 256, 385-387). ORF of hGLUT1 cDNA was obtained by digestion of pSPMM1 with BamH I, and then subcloned into the site of Bgl II in pXbG-2. Template DNAs for cRNA synthesis were amplified from the corresponding cRNA expression vectors with a high fidelity DNA polymerase, KOD—Plus—, (TOYOBO). The cRNAs were synthesized with mMESSAGE mMACHINE T7 Kit (Ambion), and then purified with RNeasy MiniElute Cleanup kit (Qiagen).
Stage V or VI oocytes were extirpated from X. laevis females, and digested ovarian lobes with 0.2% (w/v) collagenase, type II (Sigma-Aldrich) in Ca^2+-free modified Barth's saline (MBS; 88.0 mM NaCl, 1.0 mM KCl, 2.4 mM NaHCO3, 15.0 mM Tris-Cl, 0.82 mM MgSO4, […] penicillin and streptomycin, pH7.6) at 15° C. for 3 h. The oocytes were microinjected with 40 nl of either 1 ng/nl of the TRET1::AcGFP1 or AcGFP1 cRNA, or nuclease-free water (Invitrogen) as a negative control. In order to express TRET1, the oocytes were incubated in MBS (containing 0.41 mM CaCl2) for 3-4 days after injection at 15° C. Fluorescence images of the oocytes injected with the cRNA were observed and analyzed with a fluorescence microscope BZ-8000 (KEYENCE).
(§2) All uptake assays for zero-trans trehalose and/or other sugars were performed using Xenopus oocytes expressing TRET1 at 15° C. in MBS containing appropriate concentrations of sugars. Sugar concentrations were determined using HPLC (Watanabe, M., et al. (2002) J Exp Biol 205, 2799-2802). All assays were carried out in triplicate.
(§3) Xenopus oocytes expressing either TRET1 or hGLUT1 were incubated in 105 mM of various sugars for 3 h. Tre: trehalose; Mal: maltose; Suc: sucrose; Lac: lactose; MAG: methyl-a-glucopyranoside; and 2-DOG: 2-deoxy-glucose (FIG. 3B).
In General, transporters contain two sub-classes: facilitated transporters and secondary active transporters. Activities of secondary active transporters are dependent on the electrochemical membrane potential resulting from the distribution of ions such as H^+. For example, proton-dependent MAL11/AGT1 can act only under acidic extracellular conditions (Stambuk, B. U., et al. (1996) Eur J Biochem 237, 876-881). On the other hand, facilitated transporters function independently of the electrochemical membrane potential. Xenopus oocytes expressing TRET1 were incubated in 105 mM trehalose at pH 4.2 and 7.6 for 3 h.
Xenopus oocytes expressing TRET1 were incubated in 105 mM trehalose with either control buffer (Mock; 0.1% acetone), or buffer containing various concentrations of nigericin (Na^+, K^+-ionophore), valinomycin (K^+-ionophore) or CCCP (H^+-ionophore, uncoupler) for 3 h.
In general, facilitated transporters enable their substrates to flow across membranes down concentration gradients. Xenopus oocytes expressing TRET1 were first incubated in 105 mM trehalose for 3 h, and then transferred into trehalose-free buffer and trehalose content was examined over time.
Xenopus oocytes expressing TRET1 were incubated in various concentrations of trehalose for 15 min. Uptake data were fitted to the Michaelis-Menten and Eadie-Hofstee (inset of FIG. 9) equations.

hGLUT1 = molecular target: T2, hGLUT1 (Homo sapiens, UniProt P11166); assay: Sugar uptake assay in Xenopus oocytes expressing hGLUT1; type: cell-based; conditions: 105 mM of sugar, 3 h
T2 construct: ORF of hGLUT1 cDNA was obtained by digestion of pSPMM1 with BamH I; expressed in transfected cells; host or cells: Xenopus laevis oocytes injected with cRNA
T2 sequence (P11166 1-492): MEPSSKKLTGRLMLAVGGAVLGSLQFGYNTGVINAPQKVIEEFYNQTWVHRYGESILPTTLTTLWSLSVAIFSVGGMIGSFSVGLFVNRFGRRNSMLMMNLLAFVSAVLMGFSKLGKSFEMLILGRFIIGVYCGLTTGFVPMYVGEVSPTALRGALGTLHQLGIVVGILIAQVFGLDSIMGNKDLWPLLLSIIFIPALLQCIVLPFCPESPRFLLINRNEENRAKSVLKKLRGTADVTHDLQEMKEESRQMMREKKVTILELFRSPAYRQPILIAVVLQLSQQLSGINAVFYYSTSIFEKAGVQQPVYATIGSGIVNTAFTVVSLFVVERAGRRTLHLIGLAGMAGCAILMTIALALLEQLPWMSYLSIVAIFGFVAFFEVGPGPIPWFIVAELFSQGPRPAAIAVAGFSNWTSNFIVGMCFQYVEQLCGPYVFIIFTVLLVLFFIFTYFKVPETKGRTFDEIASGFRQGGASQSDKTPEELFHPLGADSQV
Description: as §1, §2, §3

[1] = 105 mM of sugar, 3 h, Xenopus oocytes

Compound	transport of sugar by TRET1 (substrate selectivity) (TRET1; [1])	effect on the transport activity of TRET1 (TRET1; 3 h)	other results
COC1OC(CO)C(O)C(O)C1O (stereo not drawn) [MAG, methyl-a-glucopyranoside]	transported at a much lower rate		
O=CC[C@@H](O)[C@H](O)[C@H](O)CO [2-DOG, 2-deoxy-glucose]			transport of sugar by Glut1 gene product (substrate selectivity) (hGLUT1): transported; transport of sugar by TRET1 (substrate selectivity) (TRET1): transported at a much lower rate
CC(C)[C@@H]1NC(=O)[C@H](C)OC(=O)[C@@H](C(C)C)NC(=O)[C@@H](C(C)C)OC(=O)[C@H](C(C)C)NC(=O)[C@H](C)OC(=O)[C@@H](C(C)C)NC(=O)[C@@H](C(C)C)OC(=O)[C@H](C(C)C)NC(=O)[C@H](C)OC(=O)[C@@H](C(C)C)NC(=O)[C@@H](C(C)C)OC1=O [valinomycin]		did not significantly affect	
OC[C@H]1O[C@@H](O[C@H]2[C@H](O)[C@@H](O)C(O)O[C@@H]2CO)[C@H](O)[C@@H](O)[C@H]1O (stereo partly drawn) [lactose, 4-O-b-D-galactopyranosyl-D-glucose]	not transported		
CO[C@@H]1C[C@@H](C[C@H]2CC[C@H](C)[C@H]([C@@H](C)C(=O)O)O2)O[C@]2(O[C@](C)([C@H]3CC[C@@](C)([C@@H]4O[C@@H]([C@H]5O[C@@](O)(CO)[C@H](C)C[C@@H]5C)C[C@@H]4C)O3)C[C@H]2C)[C@@H]1C [nigericin]		did not significantly affect	
OC[C@H]1O[C@H](O[C@H]2[C@H](O)[C@@H](O)[C@H](O)O[C@@H]2CO)[C@H](O)[C@@H](O)[C@@H]1O [Maltose, maltose]	not transported		
N#CC(C#N)=NNc1cccc(Cl)c1 [CCCP, carbonylcyanide m-chlorophenylhydrazone]		did not significantly affect	
OC[C@H]1O[C@@](CO)(O[C@H]2O[C@H](CO)[C@@H](O)[C@H](O)[C@H]2O)[C@@H](O)[C@@H]1O [sucrose]	not transported		
